Data: patent US8846698B2, “Pyrrolo[2,3-d]pyrimidine tropomysin-related kinase inhibitors” (Pfizer Limited, priority 2011, dated 2014)

Biological target: TRKA (Homo sapiens (Human), UniProt P04629)
Experiment: Isolated TRK enzyme assay (HTRF KinEASE-TK), TRKA
Assay type: biochemical
Conditions: read-out: Trka enzyme (IC50)

TRKA, sequence (P04629 441-796): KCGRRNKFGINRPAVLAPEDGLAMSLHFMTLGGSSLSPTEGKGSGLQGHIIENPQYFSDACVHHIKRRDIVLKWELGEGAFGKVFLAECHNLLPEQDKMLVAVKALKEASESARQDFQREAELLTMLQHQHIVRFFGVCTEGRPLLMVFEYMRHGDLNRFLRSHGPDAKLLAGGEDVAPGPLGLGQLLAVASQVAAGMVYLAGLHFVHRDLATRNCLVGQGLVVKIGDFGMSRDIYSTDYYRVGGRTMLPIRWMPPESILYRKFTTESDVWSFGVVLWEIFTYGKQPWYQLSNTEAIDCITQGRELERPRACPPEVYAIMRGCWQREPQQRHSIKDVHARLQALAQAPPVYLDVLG

Row | Molecule | IC50 [nM]
1 | CC(C)c1cn(CC(=O)Nc2cncc(C(=O)c3cn(C(C)C)c4nc(N)ncc34)c2)nn1 [Example 248, N-{5-[(2-amino-7-isopropyl-7H-pyrrolo[2,3-d]pyrimidin-5-yl)carbonyl]pyridin-3-yl}-2-(4-isopropyl-1H-1,2,3-triazol-1-yl)acetamide] | 23.7
2 | N-(5-(7-(1,3-dihydroxy-2-methylpropan-2-yl)-7H-pyrrolo[2,3-d]pyrimidine-5-carbonyl)pyridin-3-yl)-2-(3-trifluoromethoxy)phenyl)acetamide [Example 262] | 32.3
3 | C[C@@H](C(=O)Nc1cncc(C(=O)c2cn(C)c3ncncc23)c1)c1ccccc1 [Example 338, (2R)—N-{5-[(7-methyl-7H-pyrrolo[2,3-d]pyrimidin-5-yl)carbonyl]pyridin-3-yl}-2-phenylpropanamide] | 2730
4 | CC(C)n1cc(C(=O)c2cncc(NC(=O)c3ccccn3)c2)c2cncnc21 [Example 429, Pyridine-2-carboxylic acid [5-(7-isopropyl-7H-pyrrolo[2,3-d]pyrimidine-5-carbonyl)-pyridin-3-yl]-amide] | 2740
5 | CC(C)n1cc(C(=O)c2cncc(NC(=O)c3cnc4nccn4c3)c2)c2cncnc21 [Example 495, Imidazo[1,2-a]pyrimidine-6-carboxylic acid [5-(7-isopropyl-7H-pyrrolo[2,3-d]pyrimidine-5-carbonyl)-pyridin-3-yl]-amide] | 9800
6 | CC(CO)(CO)n1cc(C(=O)c2cncc(NC(=O)c3cccc(C(F)(F)F)c3)c2)c2cncnc21 [Example 264, N-(5-(7-(1,3-dihydroxy-2-methylpropan-2-yl)-7H-pyrrolo[2,3-d]pyrimidine-5-carbonyl)pyridin-3-yl)-3-(trifluoromethyl)benzamide] | 84.8
7 | O=C(Cc1ccc(Cl)c(Cl)c1)Nc1cncc(C(=O)c2cn(C(CO)CO)c3ncncc23)c1 [Example 276, 2-(3,4-dichlorophenyl)-N-[5-({7-[2-hydroxy-1-(hydroxymethyl)ethyl]-7H-pyrrolo[2,3-d]pyrimidin-5-yl}carbonyl)pyridin-3-yl]acetamide] | 295
8 | CC(C)n1cc(C(=O)c2cncc(NC(=O)c3scnc3C(F)(F)F)c2)c2cncnc21 [Example 402, 4-Trifluoromethyl-thiazole-5-carboxylic acid [5-(7-isopropyl-7H-pyrrolo[2,3-d]pyrimidine-5-carbonyl)-pyridin-3-yl]-amide] | 9800
9 | Cn1cc(C(=O)c2cncc(NC(=O)CCc3ccc(Cl)cc3)c2)c2cncnc21 [Example 320, 3-(4-chlorophenyl)-N-{5-[(7-methyl-7H-pyrrolo[2,3-d]pyrimidin-5-yl)carbonyl]pyridin-3-yl}propanamide] | 3100
10 | CC1(n2cc(C(=O)c3cncc(NC(=O)c4cccc(C(F)(F)F)c4)c3)c3cncnc32)COC1 [Example 574, N-{5-[7-(3-Methyl-oxetan-3-yl)-7H-pyrrolo[2,3-d]pyrimidine-5-carbonyl]-pyridin-3-yl}-3-trifluoromethyl-benzamide] | 14.2
11 | CC(C)n1cc(C(=O)c2cncc(NC(=O)Cn3cccn3)c2)c2cncnc21 [Example 114, N-{5-[(7-isopropyl-7H-pyrrolo[2,3-d]pyrimidin-5-yl)carbonyl]pyridin-3-yl}-2-(1H-pyrazol-1-yl)acetamide] | 976
12 | CC(C)n1cc(C(=O)c2cncc(NC(=O)[C@@H](N)Cc3ccc(C(=O)c4ccccc4)cc3)c2)c2cncnc21 [Example 287, 4-benzoyl-N-{5-[(7-isopropyl-7H-pyrrolo[2,3-d]pyrimidin-5-yl)carbonyl]pyridin-3-yl}-L-phenylalaninamide] | 4350
13 | Cn1cc(C(=O)c2cncc(NC(=O)Cc3cccc(C(F)(F)F)c3F)c2)c2cncnc21 [Example 192, 2-[2-fluoro-3-(trifluoromethyl)phenyl]-N-{5-[(7-methyl-7H-pyrrolo[2,3-d]pyrimidin-5-yl)carbonyl]pyridin-3-yl}acetamide] | 173
14 | CC(C)n1cc(C(=O)c2c[nH]c(=O)c(NC(=O)Cc3ccc(Cl)cn3)c2)c2cncnc21 [Example 590, 2-(5-chloropyridin-2-yl)-N-(2-oxo-5-{[7-(propan-2-yl)-7H-pyrrolo[2,3-d]pyrimidin-5-yl]carbonyl}-1,2-dihydropyridin-3-yl)acetamide] | 71.2
15 | CC(C)n1cc(C(=O)c2cncc(NC(=O)c3cn(C)cn3)c2)c2cncnc21 [Example 465, 1-Methyl-1H-imidazole-4-carboxylic acid [5-(7-isopropyl-7H-pyrrolo[2,3-d]pyrimidine-5-carbonyl)-pyridin-3-yl]-amide] | 2130
16 | CC(C)n1cc(C(=O)c2cncc(NC(=O)Cc3c[nH]c4c(Cl)cccc34)c2)c2cncnc21 [Example 148, 2-(7-chloro-1H-indol-3-yl)-N-{5-[(7-isopropyl-7H-pyrrolo[2,3-d]pyrimidin-5-yl)carbonyl]pyridin-3-yl}acetamide] | 93.4
17 | CC(C)n1cc(C(=O)c2cncc(NC(=O)Cc3cccc(C(F)(F)F)c3)c2)c2cncnc21 [Example 66, N-{5-[(7-isopropyl-7H-pyrrolo[2,3-d]pyrimidin-5-yl)carbonyl]pyridin-3-yl}-2-[3-(trifluoromethyl)phenyl]acetamide] | 3.55
18 | Cn1cc(C(=O)c2cncc(NC(=O)Cc3ccc(C(F)(F)F)c(F)c3)c2)c2cncnc21 [Example 174, 2-[3-fluoro-4-(trifluoromethyl)phenyl]-N-{5-[(7-methyl-7H-pyrrolo[2,3-d]pyrimidin-5-yl)carbonyl]pyridin-3-yl}acetamide] | 210
19 | CC(C)n1cc(C(=O)c2cncc(NC(=O)Cn3cnc(-c4ccc(F)cc4)c3)c2)c2cncnc21 [Example 365, 2-[4-(4-Fluoro-phenyl)-imidazol-1-yl]-N-[5-(7-isopropyl-7H-pyrrolo[2,3-d]pyrimidine-5-carbonyl)-pyridin-3-yl]-acetamide] | 2040
20 | CC(C)n1cc(C(=O)c2cncc(NC(=O)Cc3ccc4ocnc4c3)c2)c2cncnc21 [Example 89, 2-(1,3-benzoxazol-5-yl)-N-{5-[(7-isopropyl-7H-pyrrolo[2,3-d]pyrimidin-5-yl)carbonyl]pyridin-3-yl}acetamide] | 21.7
21 | CC(C)n1cc(C(=O)c2cncc(NC(=O)Cc3ccn(-c4ccc(O)cc4)c3)c2)c2cncnc21 [Example 374, 2-[1-(4-Hydroxy-phenyl)-1H-pyrrol-3-yl]-N-[5-(7-isopropyl-7H-pyrrolo[2,3-d]pyrimidine-5-carbonyl)-pyridin-3-yl]-acetamide] | 224
22 | CC(C)n1cc(C(=O)c2cncc(NC(=O)c3cncnc3N)c2)c2cncnc21 [Example 420, 4-Amino-pyrimidine-5-carboxylic acid [5-(7-isopropyl-7H-pyrrolo[2,3-d]pyrimidine-5-carbonyl)-pyridin-3-yl]-amide] | 9800
23 | Cn1cc(C(=O)c2cncc(NC(=O)Cc3c(F)cccc3Cl)c2)c2cncnc21 [Example 180, 2-(2-chloro-6-fluorophenyl)-N-{5-[(7-methyl-7H-pyrrolo[2,3-d]pyrimidin-5-yl)carbonyl]pyridin-3-yl}acetamide] | 3100
24 | Cc1ccnc(C(=O)Nc2cncc(C(=O)c3cn(C(C)C)c4ncncc34)c2)c1 [Example 388, 4-Methyl-pyridine-2-carboxylic acid[5-(7-isopropyl-7H-pyrrolo[2,3-d]pyrimidine-5-carbonyl)-pyridin-3-yl]-amide] | 165
